Test results published in PubChem BioAssay AID248 (DTP/NCI, 2004).
Values joined by “and” are separate entries in the source; they are usually repeats but may differ in a detail not shown here. Equal entries are not always repeated. Inconclusive results and toxic doses are left out. No stated cut-off is given here; in the data, active means T/C of 150% or more; inactive means T/C below 125%.

System: L1210 leukemia ip in BDF1 mice, survival T/C
Experiment: NCI In Vivo Anticancer Drug Screen. Data for tumor model L1210 Leukemia (intraperitoneal) in B6D2F1 (BDF1) mice
Conditions: endpoint: mean survival time, higher = longer survival
Summary of the method: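 Each compound was tested against a transplantable tumor grown in mice. The endpoint was survival, with treated animals benchmarked against vehicle controls as a simple ratio.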

[1] = dose: 100.0 mg/kg/injection, schedule: Q01DX009 (ip), vehicle: saline
[2] = dose: 200.0 mg/kg/injection, schedule: Q01DX009 (ip), vehicle: saline
[3] = dose: 400.0 mg/kg/injection, schedule: Q01DX009 (ip), vehicle: saline
[4] = dose: 100.0 mg/kg/injection, schedule: Q01DX009 (ip), vehicle: Klucel (hydroxypropylcellulose) (HPC)
[5] = dose: 200.0 mg/kg/injection, schedule: Q01DX009 (ip), vehicle: Klucel (hydroxypropylcellulose) (HPC)
[6] = dose: 400.0 mg/kg/injection, schedule: Q01DX009 (ip), vehicle: Klucel (hydroxypropylcellulose) (HPC)
[7] = dose: 50.0 mg/kg/injection, schedule: Q01DX001 (ip), vehicle: saline
[8] = dose: 100.0 mg/kg/injection, schedule: Q01DX001 (ip), vehicle: saline
[9] = dose: 200.0 mg/kg/injection, schedule: Q01DX001 (ip), vehicle: saline
[10] = dose: 400.0 mg/kg/injection, schedule: Q01DX001 (ip), vehicle: saline
[11] = dose: 100.0 mg/kg/injection, schedule: Q04DX003 (ip), vehicle: saline
[12] = dose: 100.0 mg/kg/injection, schedule: Q01DX009 (ip), vehicle: saline with Tween-80
[13] = dose: 100.0 mg/kg/injection, schedule: Q04DX003 (ip), vehicle: saline with Tween-80
[14] = dose: 200.0 mg/kg/injection, schedule: Q01DX009 (ip), vehicle: saline with Tween-80
[15] = dose: 200.0 mg/kg/injection, schedule: Q04DX003 (ip), vehicle: saline with Tween-80
[16] = dose: 400.0 mg/kg/injection, schedule: Q04DX003 (ip), vehicle: saline with Tween-80

Measured: T/C

COC(=O)C1C=C2c3cccc4[nH]cc(c34)CC2N(C#N)C1 (stereo not drawn)
inactive: dose: 25.0 mg/kg/injection, schedule: Q04DX003 (ip), vehicle: alcohol 91 % of control | dose: 50.0 mg/kg/injection, schedule: Q04DX003 (ip), vehicle: alcohol 100 % of control | dose: 100.0 mg/kg/injection, schedule: Q04DX003 (ip), vehicle: alcohol 96 % of control | dose: 200.0 mg/kg/injection, schedule: Q04DX003 (ip), vehicle: alcohol 93 % of control | dose: 400.0 mg/kg/injection, schedule: Q04DX003 (ip), vehicle: alcohol 94 % of control

O=C1C=CC2=Nc3ccccc3CCC2=C1
inactive: dose: 75.0 mg/kg/injection, schedule: Q01DX001 (ip), vehicle: steriod suspending solution 93 % of control | dose: 150.0 mg/kg/injection, schedule: Q01DX001 (ip), vehicle: steriod suspending solution 93 % of control | dose: 300.0 mg/kg/injection, schedule: Q01DX001 (ip), vehicle: steriod suspending solution 92 % of control

CCOC(CCc1c(C)nc[nH]c1=O)OCC
inactive: [1] 90 % of control | [2] 98 % of control | [3] 95 % of control

COc1cc([N+](=O)[O-])ccc1NC(=O)Oc1ccc(NC(C)=O)cc1
inactive: [4] 101 % of control | [5] 106 % of control | [6] 91 % of control

OCC(O)C(O)C(O)C(c1ccc(Cl)cc1)c1ccc(Cl)cc1 (stereo not drawn)
inactive: [7] 104 % of control and 103 % of control and 101 % of control | [8] 102 % of control and 103 % of control and 97 % of control | [9] 98 % of control and 101 % of control and 97 % of control | [10] 96 % of control and 91 % of control and 101 % of control

Cc1[nH]c(=S)[nH]c(=O)c1CCSC(=N)N
inactive: [8] 108 % of control | [9] 103 % of control

CCN(CC)Cc1cc(Nc2c3ccc([N+](=O)[O-])cc3nc3ccc(OC)cc23)ccc1O
inactive: dose: 50.0 mg/kg/injection, schedule: Q01DX009 (ip), vehicle: saline 95 % of control | [1] 98 % of control and 100 % of control | [11] 95 % of control | [2] 95 % of control and 109 % of control | dose: 200.0 mg/kg/injection, schedule: Q04DX003 (ip), vehicle: saline 95 % of control | [3] 97 % of control | dose: 400.0 mg/kg/injection, schedule: Q04DX003 (ip), vehicle: saline 90 % of control

O=S(=O)(c1ccc(NC(=S)NC(Cc2ccccc2)c2ccccc2)cc1)N1CCCCC1 (stereo not drawn)
inactive: dose: 100.0 mg/kg/injection, schedule: Q04DX003 (ip), vehicle: carboxymethylcellulose (CMC) 91 % of control | dose: 200.0 mg/kg/injection, schedule: Q04DX003 (ip), vehicle: carboxymethylcellulose (CMC) 89 % of control | dose: 400.0 mg/kg/injection, schedule: Q04DX003 (ip), vehicle: carboxymethylcellulose (CMC) 93 % of control

OCCc1cccc(O)c1
inactive: [7] 102 % of control | [8] 93 % of control | [9] 86 % of control | [10] 100 % of control

CC(C)(O)c1ccccc1
inactive: [8] 105 % of control | [12] 88 % of control | [13] 93 % of control | [9] 100 % of control | [14] 90 % of control | [15] 89 % of control | [10] 103 % of control | dose: 400.0 mg/kg/injection, schedule: Q01DX009 (ip), vehicle: saline with Tween-80 92 % of control | [16] 91 % of control

CS(=O)(=O)OCCCN(CCCOS(C)(=O)=O)c1ccc(C=Nc2ccc(-c3csc(COc4ccc(Br)cc4Br)n3)cc2)cc1
inactive: [13] 91 % of control | [15] 88 % of control | [16] 86 % of control

Cc1ccc(Nc2ccc(Nc3ccc(C)cc3)c3c2C(=O)c2ccccc2C3=O)cc1
inactive: [13] 86 % of control | [15] 87 % of control | [16] 92 % of control

COc1cc(C(=O)C[n+]2ccccc2)ccc1O
inactive: [13] 93 % of control | [15] 93 % of control

CC(=O)Nc1ccc2c(c1)OCO2
inactive: [12] 101 % of control | [13] 107 % of control | [14] 102 % of control | [15] 108 % of control | [16] 103 % of control

COC(c1ccccc1)[CH]([Hg][Br])C(=O)OC1CC2CCC1(C)C2(C)C (stereo not drawn)
inactive: dose: 50.0 mg/kg/injection, schedule: Q01DX001 (ip), vehicle: carboxymethylcellulose (CMC) 93 % of control

CCC[CH2][Sn]([CH2]CCC)([CH2]CCC)[O]C(=O)CC[S][Sn]([CH2]CCC)([CH2]CCC)[CH2]CCC
inactive: dose: 0.5 mg/kg/injection, schedule: Q01DX015 (ip), vehicle: saline 97 % of control | dose: 1.0 mg/kg/injection, schedule: Q01DX015 (ip), vehicle: saline 100 % of control | dose: 2.0 mg/kg/injection, schedule: Q01DX015 (ip), vehicle: saline 95 % of control | dose: 2.5 mg/kg/injection, schedule: Q01DX001 (ip), vehicle: saline 103 % of control | dose: 4.0 mg/kg/injection, schedule: Q01DX015 (ip), vehicle: saline 87 % of control | dose: 5.0 mg/kg/injection, schedule: Q01DX001 (ip), vehicle: saline 100 % of control | dose: 10.0 mg/kg/injection, schedule: Q01DX001 (ip), vehicle: saline 105 % of control | dose: 20.0 mg/kg/injection, schedule: Q01DX001 (ip), vehicle: saline 97 % of control

O=C(Nc1ccc(S(=O)(=O)F)cc1)/C(=C/c1cccc([N+](=O)[O-])c1)c1ccccc1
inactive: [4] 106 % of control | [5] 94 % of control | [6] 100 % of control

CCO/C=N/N(C)c1n[n+]([O-])ccc1C
inactive: dose: 100.0 mg/kg/injection, schedule: Q04DX002 (ip), vehicle: saline 110 % of control | dose: 200.0 mg/kg/injection, schedule: Q04DX002 (ip), vehicle: saline 104 % of control | dose: 400.0 mg/kg/injection, schedule: Q04DX002 (ip), vehicle: saline 101 % of control

CCOC(=O)Cc1cc(O)ccc1O
inactive: dose: 100.0 mg/kg/injection, schedule: Q01DX001 (ip), vehicle: saline with Tween-80 109 % of control | dose: 200.0 mg/kg/injection, schedule: Q01DX001 (ip), vehicle: saline with Tween-80 89 % of control | dose: 400.0 mg/kg/injection, schedule: Q01DX001 (ip), vehicle: saline with Tween-80 91 % of control

CCOC(=O)c1ccc(NC(=O)Oc2ccc3c(C)cc(=O)oc3c2)cc1
inactive: [4] 101 % of control | [5] 100 % of control | [6] 89 % of control

O=C(NC(=S)c1cccc2ccccc12)Nc1ccc(Cl)cc1
inactive: dose: 100.0 mg/kg/injection, schedule: Q04DX002 (ip), vehicle: saline with Tween-80 97 % of control | dose: 200.0 mg/kg/injection, schedule: Q04DX002 (ip), vehicle: saline with Tween-80 89 % of control | dose: 400.0 mg/kg/injection, schedule: Q04DX002 (ip), vehicle: saline with Tween-80 89 % of control

COC(=O)C1CCC[N+](C)(C)C1 (stereo not drawn)
inactive: dose: 25.0 mg/kg/injection, schedule: Q04DX003 (ip), vehicle: saline 95 % of control | dose: 50.0 mg/kg/injection, schedule: Q04DX003 (ip), vehicle: saline 97 % of control | [11] 94 % of control
